Laboratory results from ChEMBL document CHEMBL5113520, “From a Cone Snail Toxin to a Competitive MC4R Antagonist” (J Med Chem, 2022).
Calls of active or inactive are those of the source. No cut-off for these calls is given here. Where a SMILES comes first, the peptide text is derived from it. Bridges are numbered along the chain shown (N, C = ends).

Assays:
Melanocortin receptor 5 = Melanocortin receptor 5 (Homo sapiens, UniProt P33032); test: Displacement of [125I]-NDP-alpha-MSH from human MC5R expressed in CHO cells by Topcount beta counter analysis; type: cell-based
Melanocortin receptor 3 = Melanocortin receptor 3 (Homo sapiens, UniProt P41968); test: Displacement of [125I]-NDP-alpha-MSH from human MC3R expressed in HEK293 cells by Topcount beta counter analysis; type: cell-based
[1] = target: Melanocyte-stimulating hormone receptor (Homo sapiens, UniProt Q01726); test: Displacement of [125I]-NDP-alpha-MSH from human MC1R expressed in CHO cells by Topcount beta counter analysis; type: cell-based
Melanocortin receptor 4 [2] = target: T1, Melanocortin receptor 4 (Homo sapiens, UniProt P32245); test: Displacement of [125I]-NDP-alpha-MSH from human MC4R expressed in CHO cells by Topcount beta counter analysis; type: cell-based
Homo sapiens [3] = organism: Homo sapiens; test: Selectivity ratio of Ki for human […] expressed in CHO cells to Ki for human MC4R expressed in CHO cells; type: cell-based
Melanocortin receptor 4 [4] = target: T1, Melanocortin receptor 4; test: Antagonist activity at human MC4R in HEK293SL cells assessed as beta-arrestin2 activation incubated for 30 mins in presence of NDP-alpha-MSH by BRET assay; type: functional, cell-based; details: filed as antagonist
Homo sapiens [5] = organism: Homo sapiens; test: Selectivity ratio of Ki for human MC3R expressed in HEK293 cells to Ki for human MC4R expressed in CHO cells; type: cell-based
Melanocortin receptor 4 [6] = target: T1, Melanocortin receptor 4; test: Antagonist activity at human MC4R in HEK293SL cells assessed as Gs activation incubated for 30 mins in presence of NDP-alpha-MSH by BRET assay; type: functional, cell-based; details: filed as antagonist
Melanocortin receptor 4 [7] = target: T1, Melanocortin receptor 4; test: Antagonist activity at human MC4R in HEK293SL cells assessed as G15 activation incubated for 30 mins in presence of alpha-MSH by BRET assay; type: functional, cell-based; details: filed as antagonist
Melanocortin receptor 4 [8] = target: T1, Melanocortin receptor 4; test: Antagonist activity at human MC4R in HEK293SL cells assessed as beta-arrestin2 activation incubated for 30 mins in presence of alpha-MSH by BRET assay; type: functional, cell-based; details: filed as antagonist
Melanocortin receptor 4 [9] = target: T1, Melanocortin receptor 4; test: Antagonist activity at human MC4R in HEK293SL cells assessed as G15 activation incubated for 30 mins in presence of NDP-alpha-MSH by BRET assay; type: functional, cell-based; details: filed as antagonist
[10] = target: T2, Type-1 angiotensin II receptor (Homo sapiens) (UniProt P30556); test: Inhibition of human AT1R expressed in CHO cells at 50 uM by Topcount beta counter analysis relative to control; type: cell-based
T2 sequence (whole entry): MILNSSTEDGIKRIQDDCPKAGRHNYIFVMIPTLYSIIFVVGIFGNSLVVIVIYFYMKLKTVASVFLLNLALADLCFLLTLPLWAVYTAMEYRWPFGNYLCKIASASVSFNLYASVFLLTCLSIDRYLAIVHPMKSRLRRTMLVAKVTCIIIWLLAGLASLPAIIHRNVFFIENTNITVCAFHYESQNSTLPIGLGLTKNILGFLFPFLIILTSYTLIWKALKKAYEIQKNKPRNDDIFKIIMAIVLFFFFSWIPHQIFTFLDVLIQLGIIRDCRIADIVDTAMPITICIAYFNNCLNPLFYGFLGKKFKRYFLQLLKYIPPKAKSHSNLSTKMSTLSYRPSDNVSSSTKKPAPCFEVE

Homo sapiens [11] = organism: Homo sapiens; test: Selectivity ratio of Ki for human MC1R expressed in CHO cells to Ki for human MC4R expressed in CHO cells; type: cell-based
Melanocortin receptor 4 [12] = target: T1, Melanocortin receptor 4; test: Antagonist activity at human MC4R in HEK293SL cells assessed as Gs activation at 30 uM incubated for 30 mins in presence of alpha-MSH by BRET assay; type: functional, cell-based; details: filed as antagonist
Melanocortin receptor 4 [13] = target: T1, Melanocortin receptor 4; test: Antagonist activity at human MC4R in HEK293SL cells assessed as Gs activation incubated for 30 mins in presence of alpha-MSH by BRET assay; type: functional, cell-based; details: filed as antagonist

Chain of Melanocortin receptor 3 (P41968 whole entry): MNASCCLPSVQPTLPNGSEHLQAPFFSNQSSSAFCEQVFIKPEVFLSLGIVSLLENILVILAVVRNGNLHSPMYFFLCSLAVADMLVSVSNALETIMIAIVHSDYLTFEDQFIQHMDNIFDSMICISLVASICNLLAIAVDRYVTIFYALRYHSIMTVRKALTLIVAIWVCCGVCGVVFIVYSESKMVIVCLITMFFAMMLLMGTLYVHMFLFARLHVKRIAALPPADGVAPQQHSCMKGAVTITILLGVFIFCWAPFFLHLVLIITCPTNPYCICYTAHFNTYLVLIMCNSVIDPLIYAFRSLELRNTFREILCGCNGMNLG
Chain of Melanocyte-stimulating hormone receptor (Q01726 whole entry): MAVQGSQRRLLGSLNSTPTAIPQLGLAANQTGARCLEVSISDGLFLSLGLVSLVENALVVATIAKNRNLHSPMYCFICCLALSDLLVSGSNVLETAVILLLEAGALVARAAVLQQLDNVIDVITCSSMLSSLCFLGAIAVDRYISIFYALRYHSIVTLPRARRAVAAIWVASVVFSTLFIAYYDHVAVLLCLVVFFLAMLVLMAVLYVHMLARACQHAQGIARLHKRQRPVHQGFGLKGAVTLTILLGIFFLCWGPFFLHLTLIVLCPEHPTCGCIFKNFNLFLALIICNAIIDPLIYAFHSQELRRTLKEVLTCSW
T1 sequence (P32245 whole entry): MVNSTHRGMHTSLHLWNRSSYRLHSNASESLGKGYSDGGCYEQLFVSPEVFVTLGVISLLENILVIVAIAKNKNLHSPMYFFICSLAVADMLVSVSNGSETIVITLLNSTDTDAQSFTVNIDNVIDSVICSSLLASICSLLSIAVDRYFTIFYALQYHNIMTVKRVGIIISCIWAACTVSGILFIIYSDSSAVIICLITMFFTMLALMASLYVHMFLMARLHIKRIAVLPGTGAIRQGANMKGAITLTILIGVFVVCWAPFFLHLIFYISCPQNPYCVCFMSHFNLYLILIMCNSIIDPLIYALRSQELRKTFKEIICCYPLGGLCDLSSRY
Chain of Melanocortin receptor 5 (P33032 whole entry): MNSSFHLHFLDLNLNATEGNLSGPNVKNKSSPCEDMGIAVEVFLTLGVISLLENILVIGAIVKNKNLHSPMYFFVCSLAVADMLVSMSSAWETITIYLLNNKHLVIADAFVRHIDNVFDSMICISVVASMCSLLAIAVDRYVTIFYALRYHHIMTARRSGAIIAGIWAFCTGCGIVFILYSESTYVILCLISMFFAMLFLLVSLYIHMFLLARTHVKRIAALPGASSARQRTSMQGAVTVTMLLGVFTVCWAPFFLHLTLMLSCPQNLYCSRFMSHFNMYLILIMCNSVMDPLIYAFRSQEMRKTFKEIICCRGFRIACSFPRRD

| Molecule | Ki (Melanocortin receptor 5; read-out: pKi (converted)) | Ki (Melanocortin receptor 3; read-out: pKi (converted)) | Ki ([1]; read-out: pKi (converted)) | Ki (Melanocortin receptor 4 [2]; read-out: pKi (converted)) | Ratio Ki (Homo sapiens [3]) | Kb (Melanocortin receptor 4 [4]) | Ratio Ki (Homo sapiens [5]) | Kb (Melanocortin receptor 4 [6]) | Kb (Melanocortin receptor 4 [7]) | Ki (Melanocortin receptor 5; read-out: Ki) | Kb (Melanocortin receptor 4 [8]) | Ki (Melanocortin receptor 3; read-out: Ki) | Kb (Melanocortin receptor 4 [9]) | Ki ([1]; read-out: Ki) | inhibition [10] | Ratio Ki (Homo sapiens [11]) | Activity (Melanocortin receptor 4 [12]) | Kb (Melanocortin receptor 4 [13]) | Ki (Melanocortin receptor 4 [2]; read-out: Ki) |
| --- | --- | --- | --- | --- | --- | --- | --- | --- | --- | --- | --- | --- | --- | --- | --- | --- | --- | --- | --- |
| CC(C)C[C@@H]1NC(=O)[C@H](CCC(N)=O)NC(=O)[C@@H](NC(=O)[C@H](Cc2ccc(O)cc2)NC(=O)[C@H](Cc2c[nH]cn2)NC(=O)[C@H](Cc2ccccc2)NC(=O)[C@@H](N)CC(C)C)CSSC[C@@H](C(=O)N[C@@H](CCC(N)=O)C(=O)N[C@@H](Cc2ccccc2)C(=O)N[C@@H](CCCCN)C(=O)N[C@@H](CC(C)C)C(=O)N[C@@H](CCCNC(=N)N)C(=O)N2CCC[C@H]2C(=O)N2CCC[C@H]2C(=O)O)NC(=O)[C@H](Cc2ccccc2)NC(=O)[C@H](CCCCN)NC(=O)CNC(=O)[C@H](CCCCN)NC(=O)[C@H](Cc2ccccc2)NC(=O)CNC(=O)[C@@H]2CCCN2C(=O)[C@@H]2CCCN2C(=O)[C@H](CC(C)C)NC(=O)[C@H](CCC(N)=O)NC1=O (H-LFHYCQLQLPPGFKGKFCQFKLRPP-OH; disulfide 5-18) | 0.117 µM | 0.275 µM | 0.398 µM | 0.0933 µM |  |  |  |  |  |  |  |  |  |  |  |  |  |  |  |
| CC(C)C[C@H](NC(=O)[C@H](CCCCN)NC(=O)[C@H](Cc1ccccc1)NC(=O)[C@H](CCC(N)=O)NC(=O)[C@@H]1CSSC[C@H](NC(=O)[C@H](Cc2ccc(O)cc2)NC(=O)[C@H](Cc2c[nH]cn2)NC(=O)[C@H](Cc2ccccc2)NC(=O)[C@@H](N)CC(C)C)C(=O)N[C@@H](CCC(N)=O)C(=O)N[C@@H](CO)C(=O)N[C@@H](CCC(N)=O)C(=O)N[C@@H](CO)C(=O)N2CCC[C@H]2C(=O)N2CCC[C@H]2C(=O)NCC(=O)N[C@@H](Cc2ccccc2)C(=O)N[C@@H](CCCCN)C(=O)NCC(=O)N[C@@H](CCCCN)C(=O)N[C@@H](Cc2ccccc2)C(=O)N1)C(=O)N[C@@H](CCCNC(=N)N)C(=O)N1CCC[C@H]1C(=O)N1CCC[C@H]1C(=O)O (H-LFHYCQSQSPPGFKGKFCQFKLRPP-OH; disulfide 5-18) | 0.229 µM | 0.224 µM | 0.776 µM | 0.0676 µM |  |  |  |  |  |  |  |  |  |  |  |  |  |  |  |
| CC(C)C[C@H](NC(=O)[C@H](CCCCN)NC(=O)[C@H](Cc1ccccc1)NC(=O)[C@H](CCC(N)=O)NC(=O)[C@@H]1CSSC[C@H](NC(=O)[C@H](Cc2ccc(O)cc2)NC(=O)[C@H](Cc2c[nH]cn2)NC(=O)[C@H](Cc2ccccc2)NC(=O)[C@@H](N)CC(C)C)C(=O)N[C@@H](CCC(N)=O)C(=O)N[C@@H](C(C)C)C(=O)N[C@@H](CCC(N)=O)C(=O)N[C@@H](C(C)C)C(=O)N2CCC[C@H]2C(=O)N2CCC[C@H]2C(=O)NCC(=O)N[C@@H](Cc2ccccc2)C(=O)N[C@@H](CCCCN)C(=O)NCC(=O)N[C@@H](CCCCN)C(=O)N[C@@H](Cc2ccccc2)C(=O)N1)C(=O)N[C@@H](CCCNC(=N)N)C(=O)N1CCC[C@H]1C(=O)N1CCC[C@H]1C(=O)O (H-LFHYCQVQVPPGFKGKFCQFKLRPP-OH; disulfide 5-18) | 0.224 µM | 0.282 µM | 0.724 µM | 0.0603 µM |  |  |  |  |  |  |  |  |  |  |  |  |  |  |  |
| H-LFHYQQKQKPPGFKGKFQQFKLRPP-OH | 0.182 µM | 0.0389 µM | 0.182 µM | 0.0135 µM | 13 | 3.8 µM | 3 | 32.3 µM | 6 µM | 0.195 µM | 33 µM | 0.041 µM | 3 µM | 0.197 µM | 77% | 13 | Active | 28 µM | 0.015 µM |
